Assays:
Assay in all cases: relative viability (nuclei count vs DMSO), 5 days (fraction); higher = more cells survive
GSK-J4 + Tozasertib = compound: CCOC(=O)CCNc1cc(N2CCc3ccccc3CC2)nc(-c2ccccn2)n1 [GSK-J4] + Cc1cc(Nc2cc(N3CCN(C)CC3)nc(Sc3ccc(NC(=O)C4CC4)cc3)n2)n[nH]1 [Tozasertib] (partner 0.1 µM)
Outline: (§1)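 Relative viability equals treated-well nuclei counts divided by vehicle-well nuclei counts. Counts came from 4× images of lung cancer cell lines grown in 1536-well plates for 5 days after pin-tool dosing on the day after seeding. Dosing used one drug alone or a fixed anchor-drug dose plus five library-drug doses (not always all listed) in √10 steps, and values are medians of duplicate plates.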

AZ3146 + Bortezomib = compound: CN1CCC(CC1)OC2=CC(=C(C=C2)NC3=NC=C4C(=N3)N(C(=O)N4C)C5CCCC5)OC [AZ3146] + CC(C)C[C@H](NC(=O)[C@H](Cc1ccccc1)NC(=O)c1cnccn1)B(O)O [Bortezomib] (partner 0.002 µM)
Outline: as §1

GSK-J4 + Phenformin = compound: CCOC(=O)CCNc1cc(N2CCc3ccccc3CC2)nc(-c2ccccn2)n1 [GSK-J4] + N=C(N)NC(=N)NCCc1ccccc1 [Phenformin] (partner 250 µM)
Outline: as §1

AZ3146 + Lapatinib = compound: CN1CCC(CC1)OC2=CC(=C(C=C2)NC3=NC=C4C(=N3)N(C(=O)N4C)C5CCCC5)OC [AZ3146] + CS(=O)(=O)CCNCc1ccc(-c2ccc3ncnc(Nc4ccc(OCc5cccc(F)c5)c(Cl)c4)c3c2)o1 [Lapatinib] (partner 2 µM)
Outline: as §1

| Cell Line | relative viability (GSK-J4 + Tozasertib; first compound 0.5 µM) | relative viability (GSK-J4 + Tozasertib; first compound 1.581 µM) | relative viability (GSK-J4 + Tozasertib; first compound 5 µM) | relative viability (GSK-J4 + Tozasertib; first compound 15.81 µM) | relative viability (GSK-J4 + Tozasertib; first compound 50 µM) | relative viability (AZ3146 + Bortezomib; first compound 0.08 µM) | relative viability (AZ3146 + Bortezomib; first compound 0.253 µM) | relative viability (AZ3146 + Bortezomib; first compound 0.8 µM) | relative viability (AZ3146 + Bortezomib; first compound 2.53 µM) | relative viability (AZ3146 + Bortezomib; first compound 8 µM) | relative viability (GSK-J4 + Phenformin; first compound 0.5 µM) | relative viability (GSK-J4 + Phenformin; first compound 1.581 µM) | relative viability (GSK-J4 + Phenformin; first compound 5 µM) | relative viability (GSK-J4 + Phenformin; first compound 15.81 µM) | relative viability (GSK-J4 + Phenformin; first compound 50 µM) | relative viability (AZ3146 + Lapatinib; first compound 0.08 µM) | relative viability (AZ3146 + Lapatinib; first compound 0.253 µM) | relative viability (AZ3146 + Lapatinib; first compound 0.8 µM) | relative viability (AZ3146 + Lapatinib; first compound 2.53 µM) | relative viability (AZ3146 + Lapatinib; first compound 8 µM) |
| --- | --- | --- | --- | --- | --- | --- | --- | --- | --- | --- | --- | --- | --- | --- | --- | --- | --- | --- | --- | --- |
| 201T | 0.801 | 0.971 | 0.96 | 0.901 | 0.836 | 1.1 | 1.07 | 1.11 | 1.16 | 1.12 | 0.444 | 0.479 | 0.374 | 0.384 | 0.352 | 1.03 | 1.06 | 1 | 1.06 | 1.06 |
| A549 |  |  |  |  |  |  |  |  |  |  | 0.146 | 0.156 | 0.0648 | 0.0756 | 0.103 | 0.977 | 0.948 | 0.924 | 0.872 | 0.109 |
| A-427 | 0.233 |  | 0.22 | 0.18 | 0.157 | 0.995 | 1.06 | 0.94 | 1.07 | 0.875 | 0.406 |  | 0.219 | 0.218 | 0.138 | 0.988 | 1.03 | 0.957 | 0.969 | 1.01 |
| ABC-1 | 0.188 | 0.166 | 0.171 | 0.166 | 0.188 | 0.28 | 0.398 | 0.247 | 0.239 | 0.356 | 0.232 | 0.259 | 0.245 | 0.217 | 0.201 | 1.24 | 1.15 | 1.33 | 1.31 | 1.11 |
| BEN | 0.514 | 0.41 | 0.609 | 0.375 | 0.492 |  | 0.588 | 0.752 | 0.762 | 0.726 | 0.25 | 0.261 |  | 0.276 | 0.254 |  | 0.683 | 0.805 | 0.659 | 0.681 |
| CAL-12T | 0.304 | 0.324 | 0.336 | 0.264 | 0.357 | 1.28 |  | 0.897 | 1.08 | 0.644 | 0.702 | 0.549 | 0.532 | 0.554 | 0.42 | 0.701 |  | 0.588 | 0.771 | 0.56 |
| COR-L23 | 0.171 | 0.211 |  | 0.158 | 0.136 | 0.912 | 1.17 | 0.991 | 0.984 | 0.886 | 0.412 | 0.408 |  | 0.39 | 0.393 | 1 | 1.02 | 0.871 | 0.923 | 0.899 |
| COR-L 105 | 0.311 | 0.371 | 0.36 | 0.394 | 0.387 | 0.677 | 0.896 | 0.78 | 0.554 | 0.294 | 0.408 | 0.395 | 0.381 | 0.475 | 0.578 | 0.357 | 0.36 | 0.317 | 0.341 | 0.254 |
| Calu-6 |  |  |  |  |  | 0.975 | 1.08 | 0.999 | 0.938 | 0.57 |  |  |  |  |  | 1.07 | 1.16 | 1.01 | 1 | 0.397 |
| ChaGo-K-1 | 0.221 | 0.213 | 0.236 | 0.236 | 0.21 | 0.93 | 0.837 | 0.932 | 0.961 | 0.738 | 0.488 | 0.49 | 0.438 | 0.475 | 0.422 |  |  |  |  |  |
| EBC-1 |  |  |  |  |  | 0.549 | 0.578 | 0.541 | 0.521 | 0.279 |  |  |  |  |  | 0.2 | 0.218 | 0.183 | 0.201 | 0.208 |
| EKVX | 0.379 | 0.213 | 0.406 | 0.346 | 0.334 | 1.03 | 1.07 | 1.11 | 1.04 | 1.26 | 0.252 | 0.213 | 0.236 | 0.177 | 0.237 | 0.172 | 0.222 | 0.225 | 0.24 | 0.2 |
| EMC-BAC-2 | 0.251 | 0.248 | 0.215 | 0.263 | 0.285 | 1.03 | 1.03 | 1.19 | 1.12 | 1.15 | 0.502 | 0.471 | 0.267 | 0.51 | 0.34 | 0.85 | 0.845 | 0.954 | 0.954 | 0.987 |
| EPLC-272H | 0.385 | 0.174 | 0.443 | 0.146 | 0.172 | 0.754 | 0.968 | 0.879 | 0.97 | 1.03 | 0.347 | 0.24 | 0.192 | 0.3 | 0.154 | 0.897 | 0.911 | 0.957 | 0.951 | 0.877 |
| H3255 | 0.519 | 0.622 | 0.539 | 0.531 | 0.508 | 0.757 | 0.627 | 0.825 | 0.835 | 0.792 | 0.331 | 0.381 | 0.36 | 0.312 | 0.365 | 0.23 | 0.216 | 0.186 | 0.267 | 0.245 |

From the supplement of paper PMC10307832
